Activity calls are given as the source filed them. The calls are words filed in the database; no cut-off is given here.

From ChEMBL document CHEMBL1147316, “Turbinaric acid, a cytotoxic secosqualene carboxylic acid from the brown alga Turbinaria ornata” (J Nat Prod, 1989) come the findings set out here.

One assay has as its system Cancer cell lines. The experiment in a line: Cytotoxicity against human colon cancer cells at 12.5 ug/mL. The assay is classed as functional, cell-based.
In the next assay the test system is Melanoma tumor cell line. The experiment in a line: Cytotoxicity against mouse melanoma cells at 26.6 ug/mL. The assay is classed as functional, cell-based.

For `CC(C)=CCC/C(C)=C/CC/C(C)=C/CC/C=C(\C)CC/C=C(\C)CCC(=O)O`, the result with Cancer cell lines and in the assay on Melanoma tumor cell line was Active.
